Calls of active or inactive are those of the source. No cut-off for these calls is given here.
Legend:
[1] = Cytotoxicity against multi-drug resistance human KBV cells assessed as cell survival rate at 5 uM in presence of 100 nM Paclitaxel incubated for 72 hrs by MTT assay; format: functional; settings: read-out: Survival
[2] = Cytotoxicity against multi-drug resistance human KBV cells assessed as cell survival rate at 5 uM incubated for 72 hrs by MTT assay; format: functional; settings: read-out: Survival
[3] = Cytotoxicity against multi-drug resistance human KBV cells assessed as cell survival rate at 10 uM incubated for 72 hrs by MTT assay; format: functional; settings: read-out: Survival
[4] = Cytotoxicity against multi-drug resistance human KBV cells assessed as cell survival rate at 10 uM in presence of 100 nM Paclitaxel incubated for 72 hrs by MTT assay; format: functional; settings: read-out: Survival
[5] = Toxicity in BALB/c nude mouse xenografted with human MDR KBV cells assessed as change in body weight administered at 30 mg/kg every 3 days for 18 days; format: organism-based; settings: in vivo, 432 h, time 18 day
[6] = Cytotoxicity against multi-drug resistance human KBV cells assessed as cell survival in presence of 5 uM (20S,24R)-Epoxy-3-beta-N-glycyl-[3,2-b]thiazole-dammarane-12-beta,25-diol incubated for 72 hrs by MTT assay; format: functional, cell-based
KBV = assay: Antitumor activity against human MDR KBV cells xenografted in BALB/c nude mouse assessed as change in tumor volume at 30 mg/kg every 3 days for 18 days; format: functional, organism-based; settings: time 18.0 day
[7] = Cytotoxicity against multi-drug resistance human KBV cells assessed as cell survival incubated for 72 hrs by MTT assay; format: functional, cell-based
[8] = Cytotoxicity against multi-drug resistance human KBV cells assessed as cell survival in presence of Verapamil incubated for 72 hrs by MTT assay; format: functional, cell-based
[9] = Cytotoxicity against multi-drug resistance human KBV cells assessed as cell survival in presence of Tariquidar incubated for 72 hrs by MTT assay; format: functional, cell-based
[10] = Cytotoxicity against multi-drug resistance human KBV cells assessed as cell survival in presence of 10 uM (20S,24R)-Epoxy-3-beta-N-glycyl-[3,2-b]thiazole-dammarane-12-beta,25-diol incubated for 72 hrs by MTT assay; format: functional, cell-based

SMILES	viability at 5 µM [1]	viability at 5 µM [2]	viability at 10 µM [3]	viability at 10 µM [4]	Activity [5]	IC50 [6]	Activity (KBV)	IC50 [7]	IC50 [8]	IC50 [9]	IC50 [10]
CC(C)(O)[C@@H]1CC[C@@](C)([C@H]2CC[C@]3(C)[C@@H]2[C@H](O)C[C@@H]2[C@@]4(C)Cc5sc(N)nc5C(C)(C)[C@@H]4CC[C@]23C)O1	68.7%	112%	80.6%	48.6%							
CC(=O)O[C@H]1C(=O)[C@@]2(C)[C@H]([C@H](OC(=O)c3ccccc3)[C@]3(O)C[C@H](OC(=O)[C@H](O)[C@@H](NC(=O)c4ccccc4)c4ccccc4)C(C)=C1C3(C)C)[C@]1(OC(C)=O)CO[C@@H]1C[C@@H]2O [PACLITAXEL]				99.3%	Non-Toxic	58.5 nM	inactive	788 nM	9.66 nM	2.16 nM	2.17 nM
CC(C)(O)[C@@H]1CC[C@@](C)([C@H]2CC[C@]3(C)[C@@H]2[C@H](O)C[C@@H]2[C@@]4(C)Cc5sc(NC(=O)[C@H](N)Cc6c[nH]c7ccccc67)nc5C(C)(C)[C@@H]4CC[C@]23C)O1	94.4%	92.8%	95.7%	76.3%							
CC(C)C[C@H](N)C(=O)Nc1nc2c(s1)C[C@]1(C)[C@H]3C[C@@H](O)[C@@H]4[C@@H]([C@]5(C)CC[C@@H](C(C)(C)O)O5)CC[C@@]4(C)[C@]3(C)CC[C@H]1C2(C)C	71.8%	89.3%	98.1%	50.9%							
CC[C@]1(O)C[C@H]2CN(CCc3c([nH]c4ccccc34)[C@@](C(=O)OC)(c3cc4c(cc3OC)N(C=O)[C@H]3[C@@](O)(C(=O)OC)[C@H](OC(C)=O)[C@]5(CC)C=CCN6CC[C@]43[C@@H]65)C2)C1 [VINCRISTINE]						13.7 nM		559 nM	1.63 nM	1.5 nM	1.18 nM
CC(C)(O)[C@@H]1CC[C@@](C)([C@H]2CC[C@]3(C)[C@@H]2[C@H](O)C[C@@H]2[C@@]4(C)Cc5sc(NC(=O)CCCN)nc5C(C)(C)[C@@H]4CC[C@]23C)O1	90%	106%	67.2%	57%							
CC(C)(O)[C@@H]1CC[C@@](C)([C@H]2CC[C@]3(C)[C@@H]2[C@H](O)C[C@@H]2[C@@]4(C)Cc5sc(NC(=O)[C@H](N)Cc6ccccc6)nc5C(C)(C)[C@@H]4CC[C@]23C)O1	101%	103%	96%	50.2%							
CC(C)(O)[C@H]1CC[C@@](C)([C@H]2CC[C@]3(C)[C@H]2[C@H](O)C[C@@H]2[C@@]4(C)Cc5sc(NC(=O)[C@H](N)Cc6c[nH]c7ccccc67)nc5C(C)(C)[C@@H]4CC[C@]23C)O1	69.5%	91.9%	93.9%	55.6%							
CC(C)(O)[C@H]1CC[C@@](C)([C@H]2CC[C@]3(C)[C@@H]2[C@H](O)C[C@@H]2[C@@]4(C)Cc5sc(NC(=O)CCCN)nc5C(C)(C)[C@@H]4CC[C@]23C)O1	19.8%	34.7%	14.9%	12.6%							
O=C1c2c(O)ccc(O)c2C(=O)c2c(NCCNCCO)ccc(NCCNCCO)c21 [MITOXANTRONE]						165 nM		299 nM	97.5 nM	90 nM	61.9 nM
CC(C)(O)[C@H]1CC[C@@](C)([C@H]2CC[C@]3(C)[C@@H]2[C@H](O)C[C@@H]2[C@@]4(C)Cc5sc(NC(=O)CCCCCCCCCCN)nc5C(C)(C)[C@@H]4CC[C@]23C)O1	17.5%	43.6%	12.4%	11.4%							
CC(C)(O)[C@H]1CC[C@@](C)([C@H]2CC[C@]3(C)[C@@H]2[C@H](O)C[C@@H]2[C@@]4(C)Cc5sc(N)nc5C(C)(C)[C@@H]4CC[C@]23C)O1	33.7%	104%	73.9%	18.2%							
CC(C)[C@H](N)C(=O)Nc1nc2c(s1)C[C@]1(C)[C@H]3C[C@@H](O)[C@H]4[C@@H]([C@]5(C)CC[C@H](C(C)(C)O)O5)CC[C@@]4(C)[C@]3(C)CC[C@H]1C2(C)C	91.6%	95.2%	92.7%	54.2%							
CC(C)(O)[C@H]1CC[C@@](C)([C@H]2CC[C@]3(C)[C@@H]2[C@H](O)C[C@@H]2[C@@]4(C)Cc5sc(NC(=O)[C@H](N)Cc6ccccc6)nc5C(C)(C)[C@@H]4CC[C@]23C)O1	54.1%	100%	101%	39.1%							
C[C@H](N)C(=O)Nc1nc2c(s1)C[C@]1(C)[C@H]3C[C@@H](O)[C@@H]4[C@@H]([C@]5(C)CC[C@H](C(C)(C)O)O5)CC[C@@]4(C)[C@]3(C)CC[C@H]1C2(C)C	67.3%	91.4%	103%	41%							
CC(C)(O)[C@H]1CC[C@@](C)([C@H]2CC[C@]3(C)[C@@H]2[C@H](O)C[C@@H]2[C@@]4(C)Cc5sc(NC(=O)CCCCCCCN)nc5C(C)(C)[C@@H]4CC[C@]23C)O1	23.6%	38.3%	23.5%	15%							
C[C@H](N)C(=O)Nc1nc2c(s1)C[C@]1(C)[C@H]3C[C@@H](O)[C@@H]4[C@@H]([C@]5(C)CC[C@@H](C(C)(C)O)O5)CC[C@@]4(C)[C@]3(C)CC[C@H]1C2(C)C	77.4%	95.7%	97.4%	46%							
CC(C)(O)[C@@H]1CC[C@@](C)([C@H]2CC[C@]3(C)[C@@H]2[C@H](O)C[C@@H]2[C@@]4(C)CC[C@H](O)C(C)(C)[C@@H]4CC[C@]23C)O1				86.5%							
CC(C)C[C@H](N)C(=O)Nc1nc2c(s1)C[C@]1(C)[C@H]3C[C@@H](O)[C@H]4[C@@H]([C@]5(C)CC[C@H](C(C)(C)O)O5)CC[C@@]4(C)[C@]3(C)CC[C@H]1C2(C)C	90.4%	92.8%	89%	32.6%							
CC(C)(O)[C@H]1CC[C@@](C)([C@H]2CC[C@]3(C)[C@@H]2[C@H](O)C[C@@H]2[C@@]4(C)Cc5sc(NC(=O)[C@H]6CCCN6)nc5C(C)(C)[C@@H]4CC[C@]23C)O1	39.5%	84.1%	59.5%	22.9%							
CC(C)(O)[C@@H]1CC[C@@](C)([C@H]2CC[C@]3(C)[C@@H]2[C@H](O)C[C@@H]2[C@@]4(C)Cc5sc(NC(=O)CCCCCCCN)nc5C(C)(C)[C@@H]4CC[C@]23C)O1	29%	44.7%	16.5%	17.3%							
CC(C)(O)[C@H]1CC[C@@](C)([C@H]2CC[C@]3(C)[C@@H]2[C@H](O)C[C@@H]2[C@@]4(C)Cc5sc(NC(=O)CCCCCN)nc5C(C)(C)[C@@H]4CC[C@]23C)O1	21.6%	35.3%	30.3%	12.5%							
CC(C)(O)[C@H]1CC[C@@](C)([C@H]2CC[C@]3(C)[C@@H]2[C@H](O)C[C@@H]2[C@@]4(C)CC[C@H](O)C(C)(C)[C@@H]4CC[C@]23C)O1				86.6%							
CC(C)[C@H](N)C(=O)Nc1nc2c(s1)C[C@]1(C)[C@H]3C[C@@H](O)[C@H]4[C@@H]([C@]5(C)CC[C@@H](C(C)(C)O)O5)CC[C@@]4(C)[C@]3(C)CC[C@@]1(O)C2(C)C	98.6%	92.5%	100%	90.7%							
CC(C)(O)[C@@H]1CC[C@@](C)([C@H]2CC[C@]3(C)[C@@H]2[C@H](O)C[C@@H]2[C@@]4(C)Cc5sc(NC(=O)CN)nc5C(C)(C)[C@@H]4CC[C@]23C)O1	59.4%	94.6%	65.4%	30.2%							
CC(C)(O)[C@@H]1CC[C@@](C)([C@H]2CC[C@]3(C)[C@@H]2[C@H](O)C[C@@H]2[C@@]4(C)Cc5sc(NC(=O)[C@H]6CCCN6)nc5C(C)(C)[C@@H]4CC[C@]23C)O1	69.8%	94.6%	93.3%	48.1%							
CC(C)(O)[C@@H]1CC[C@@](C)([C@H]2CC[C@]3(C)[C@@H]2[C@H](O)C[C@@H]2[C@@]4(C)Cc5sc(NC(=O)CCCCCCCCCCN)nc5C(C)(C)[C@@H]4CC[C@]23C)O1	18.1%	18.4%	17.5%	16.4%							
CC(C)(O)[C@@H]1CC[C@@](C)([C@H]2CC[C@]3(C)[C@@H]2[C@H](O)C[C@@H]2[C@@]4(C)Cc5sc(NC(=O)CCCCCN)nc5C(C)(C)[C@@H]4CC[C@]23C)O1	72.2%	93.5%	72.2%	67.2%							
